For orientation: logD means the decadic logarithm of the distribution of all forms, ionised or not, between an organic phase and buffer at a given pH. Read a high logD as a more lipophilic compound.

This series in a line: physchem. Conditions: octan-1-ol/water.

For `CCN(CC)CCOC(=O)C1(C2CCCCC2)CCCCC1` [DICYCLOMINE], for the setting “pH 7.4, LogD7.4”, the logD turned out to be 3.72.

With `CS(=O)(=O)c1ccc(-c2cc(C(=O)N[C@H]3CCCNC3)c(NC(N)=O)s2)cc1`, the log distribution coefficient (logD) (pH 7.4, LogD7.4) is 0.68. The same measure, in the same setting: under `Cc1cccc(Cn2ccn3c(=O)cc(N4CCOCC4)nc23)c1` stands 2.8; under `Nc1nc(N)nc(-c2cccc(C(F)(F)F)c2)n1`, 2.4. Same read-out and setting: under `CCCc1c(OCc2cccc(NC(=O)Cc3ccccc3C(=O)O)c2)ccc(C(C)=O)c1O` stands 2.95; under `CC(C)Cn1c(=O)n(C)c(=O)c2c(S(=O)(=O)N3CC[C@@H](O)C3)c(Cc3ccccc3C(F)(F)F)sc21`, 3.32. Still for that read-out and setting: next, `CC(=O)N[C@H](C)c1ccc(Nc2ncc3cc(-c4ccncc4)ccc3n2)cc1`: 3.18. Consider `CS(=O)(=O)c1ccc(CC(=O)N(C2CC2)C2CCN(CCC(c3ccccc3)c3ccccc3)CC2)cc1`, for which, where the note is “pH 7.4, LogD7.4”, the log distribution coefficient (logD) stood at 2.89. On the same count and under the same terms, next, `CSc1ncccc1C(=O)NCCc1ccc(Cl)cc1`: 3.31. Same read-out and setting: under `O=S(=O)(Cc1cc(Cl)cc(Cl)c1)NCC(c1ccccc1)N1CCCCCC1` (configuration not stated) stands 3.23. For the setting “pH 7.4, LogD7.4”, `CC[C@H](NC(=O)c1c(N)c(-c2cccc(F)c2)nc2ccccc12)c1ccccc1` came in with a log distribution coefficient (logD) of 4.05. `CCCCC1(CC)C(=O)NC(=O)NC1=O` [BUTETHAL] showed a pH-dependent lipophilicity (logD) (pH 7.4) of 1.5. As for `Cc1cc2n[nH]c(=O)n2c2cc(-c3ccncc3)ccc12`, under “pH 7.4, LogD7.4”, the logD was found to be 2.29.

Turning to `CN(C)C(=O)c1ccc(C(=C2CCN(Cc3cscn3)CC2)c2cccc3cccnc23)cc1`, the log distribution coefficient (logD) (pH 7.4) was found to be 2.3. As for `NC(=O)c1cccc(OC2CCN(CC3CC3)CC2)c1`, the logD (pH 7.4, LogD7.4) is 0.49. The same measure, in the same setting: next, `CCN1CCOC(C(=O)N2CCN(C(=O)Nc3ccc(Cl)c(Cl)c3)CC2)C1` (configuration not stated): 2.1. Still for that read-out and setting: under `COc1cc(F)ccc1-c1cncc(CNC(=O)c2cnccn2)c1` stands 2.5; under `CCC(c1nc2ccsc2c(=O)n1Cc1ccc(Cl)cc1)N(CCCN)C(=O)c1ccc(C)cc1` (configuration not stated), 2.32; under `Nc1ccc(Cl)c(C(=O)NCC23CC4CC(CC(C4)C2)C3)c1`, 3.45.

`CCCSc1nc(N2CCCC(C(=O)O)C2)ccc1C(=O)NC1CCCCC1` (configuration not stated) had a logD (pH 7.4, LogD7.4) of 1.72. On the same count and under the same terms, next, `NS(=O)(=O)c1cc2c(cc1C(F)(F)F)NC(Cc1ccccc1)NS2(=O)=O` (configuration not stated) [BENDROFLUMETHIAZIDE]: 1.78. Same read-out and setting: under `CN1CCOc2nc(C#Cc3ccccc3)ccc21` stands 3.8; under `NC(=O)Nc1sc(-c2ccccc2)cc1C(=O)N[C@H]1CCCNC1`, 1.27; under `COCCOc1ccc(Nc2ncc3cc(-c4ccncc4)ccc3n2)cc1`, 3.1. Same read-out and setting: under `COc1ccc(-c2cc(NC(=O)Cc3ccc4ccccc4c3)[nH]n2)cc1OC` stands 3.1; under `O=C1C(=O)c2cc(-c3ccccc3F)ccc2-c2ccccc21`, 2.92. As for `CCCCC(CC)COC(=O)CC(C(=O)OCC(CC)CCCC)S(=O)(=O)O` (configuration not stated) [DOCUSATE], the logD (pH 7.4, LogD7.4) came to 2.93. Under “pH 7.4”, `CCC(CO)NCCNC(CC)CO` (configuration not stated) yielded a pH-dependent lipophilicity (logD) of -1.42. Regarding `CNC(=O)c1ccc(CCC(COc2ccc(-c3cccc([N+](=O)[O-])c3)cc2)N2C(=O)CSC2=O)cc1` (configuration not stated), the log distribution coefficient (logD) (pH 7.4, LogD7.4) stood at 3.5. Still for that read-out and setting: under `CCOC(=O)c1coc2ccccc2c1=O` stands 1.81. On to `O=C(Nc1ccccc1)c1cc2ccccc2o1`, for which the logD (pH 7.4, LogD7.4) was 3.44. As to `Clc1ccccc1-c1c[nH]nn1`, the logD (pH 7.4, LogD7.4) was determined as 2.68.

The compound `N=C(N)Nc1ccc(Cl)c(Cl)c1` registered a log distribution coefficient (logD) (pH 7.4, LogD7.4) of -0.31. Same read-out and setting: under `Cc1nnc(N)s1` stands -0.4; under `COc1ccc(OC(F)(F)F)cc1CN[C@H]1CCCN[C@H]1c1ccccc1`, 2.9. On the same count and under the same terms, next, `O=c1[nH]c2c(O)ccc([C@@H](O)CNCCOCCCNCCc3cccc(Cl)c3)c2s1`: 0.83; `O=C(Nc1ccc(Cl)nc1)c1ccc(F)c(Cl)c1`: 3.64.

On to `CCNc1nc(N)c(C(=O)c2ccc(Cl)s2)s1`, for which the logD (pH 7.4, LogD7.4) turned out to be 3.63. Take `CC#Cc1cncc(-c2cccc(C3(C4CC4)N=C(C)C(N)=N3)c2)c1` (configuration not stated): the log distribution coefficient (logD) (pH 7.4, LogD7.4) worked out at 3.3. Still for that read-out and setting: under `NS(=O)(=O)c1cc(Cl)c(Cl)c(S(N)(=O)=O)c1` [DICHLORPHENAMIDE] stands 0.92; under `c1ccc(-c2ccc(COc3ccc4c(c3)CCC(CCN3CCCCC3)C4)cc2)cc1` (configuration not stated), 3.3; under `CCN(CCO)CCCOc1cc2ncnc(Nc3cc(CC(=O)Nc4cccc(F)c4)[nH]n3)c2cc1OC`, 2.12. With `Cc1ncc(-c2ccnc(Nc3ccc(C(N)=O)cc3)n2)n1C(C)C`, the logD (pH 7.4, LogD7.4) worked out at 2.39. Still for that read-out and setting: under `C[C@@H](NC1=CC(=O)CCC1)c1ccc(Nc2ncc3cc(-c4ccncc4)ccc3n2)cc1` stands 3.17; under `Nc1ccc2c(c1)C(=O)c1ccccc1-2`, 2.9; under `Cc1ccc(-c2cn(C)c(C)n2)cc1NC(=O)c1ccc(OCc2ccccn2)cc1`, 2.71. Still for that read-out and setting: under `Oc1nc(S)nc2nc[nH]c12` stands -1.48.

For the origin of these results see ChEMBL document CHEMBL3301361, “Experimental in vitro DMPK and physicochemical data on a set of publicly disclosed compounds”.
